Measured values reported in the supplement of paper PMC8671470.

System: SHI-1
Assay: cell viability (% survival relative to DMSO control, bortezomib = 0%); higher = less cytotoxic
Conditions: 10 nM; 72 h
Outline: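 In 384-well plates pre-printed with compounds at 1, 10, 100, 1000 or 10000 nM, duplicate wells received cells from 10 AML and 5 CML lines at densities within the linear growth range. The plates stayed at 37 °C with 5% CO2 for 72 h before CellTiter-Glo luminescence was recorded. Each entry is averaged percent survival. Scaling placed vehicle at 100% and a 10 µM positive control at 0%.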

| SMILES | cell viability |
| --- | --- |
| Cc1ccccc1C(C(=O)NC1CCCCC1)N(C(=O)Cn1ccnc1C)c1cccc(F)c1 (stereo unspecified) [AGI-5198] | 92.7% |
| CC(C)(C#N)c1cc(Cn2cncn2)cc(C(C)(C)C#N)c1 [Anastrozole] | 94.5% |
| O=C(O)C1=CC(=C(c2ccc(O)c(C(=O)O)c2)c2ccc(O)c(C(=O)O)c2)C=CC1=O [Aurintricarboxylic acid] | 91.8% |

Same assay, conditions: 100 nM; 72 h

| SMILES | cell viability |
| --- | --- |
| CN(C)C(=O)[C@H](O)[C@H](Cc1ccccc1)NC(=O)c1cc2cc(Cl)ccc2[nH]1 | 115% |
| COc1ccc(CNC(=O)Nc2ncc([N+](=O)[O-])s2)cc1 | 103% |
| CCOP(=O)(OCC)C(=Cc1cc(C(C)(C)C)c(O)c(C(C)(C)C)c1)P(=O)(OCC)OCC | 123% |
| COc1ccc(-c2ccccc2)cc1NS(=O)(=O)c1cc(Cl)cc(Cl)c1O | 105% |
| C[C@H](NC(=O)c1sccc1OCc1ccc(Cl)cc1)c1ccccc1 | 97.9% |
| O=C(O)c1cc(Cl)cc(Cl)c1O [3,5-Dichlorosalicylic Acid] | 98.4% |
| O=C(O)C(=O)CBr [3-bromopyruvic acid] | 117% |
| NS(=O)(=O)c1ccc([N+](=O)[O-])cc1 [4-Nitrobenzenesulfonamide] | 102% |
| Cc1ccccc1C(C(=O)NC1CCCCC1)N(C(=O)Cn1ccnc1C)c1cccc(F)c1 (stereo unspecified) [AGI-5198] | 107% |
| CC(C)(C#N)c1cc(Cn2cncn2)cc(C(C)(C)C#N)c1 [Anastrozole] | 102% |
| O=C(O)C1=CC(=C(c2ccc(O)c(C(=O)O)c2)c2ccc(O)c(C(=O)O)c2)C=CC1=O [Aurintricarboxylic acid] | 99% |

Same assay, conditions: 1000 nM; 72 h

| SMILES | cell viability |
| --- | --- |
| CN(C)C(=O)[C@H](O)[C@H](Cc1ccccc1)NC(=O)c1cc2cc(Cl)ccc2[nH]1 | 114% |
| COc1ccc(CNC(=O)Nc2ncc([N+](=O)[O-])s2)cc1 | 106% |
| CCOP(=O)(OCC)C(=Cc1cc(C(C)(C)C)c(O)c(C(C)(C)C)c1)P(=O)(OCC)OCC | 94.9% |
| COc1ccc(-c2ccccc2)cc1NS(=O)(=O)c1cc(Cl)cc(Cl)c1O | 82.2% |
| C[C@H](NC(=O)c1sccc1OCc1ccc(Cl)cc1)c1ccccc1 | 95.4% |
| O=C(O)c1cc(Cl)cc(Cl)c1O [3,5-Dichlorosalicylic Acid] | 111% |
| O=C(O)C(=O)CBr [3-bromopyruvic acid] | 99.6% |
| NS(=O)(=O)c1ccc([N+](=O)[O-])cc1 [4-Nitrobenzenesulfonamide] | 100% |
| Cc1ccccc1C(C(=O)NC1CCCCC1)N(C(=O)Cn1ccnc1C)c1cccc(F)c1 (stereo unspecified) [AGI-5198] | 96.2% |
| CC(C)(C#N)c1cc(Cn2cncn2)cc(C(C)(C)C#N)c1 [Anastrozole] | 101% |
| O=C(O)C1=CC(=C(c2ccc(O)c(C(=O)O)c2)c2ccc(O)c(C(=O)O)c2)C=CC1=O [Aurintricarboxylic acid] | 100% |

Same assay, conditions: 10000 nM; 72 h

| SMILES | cell viability |
| --- | --- |
| CN(C)C(=O)[C@H](O)[C@H](Cc1ccccc1)NC(=O)c1cc2cc(Cl)ccc2[nH]1 | 99.6% |
| COc1ccc(CNC(=O)Nc2ncc([N+](=O)[O-])s2)cc1 | 89.8% |
| CCOP(=O)(OCC)C(=Cc1cc(C(C)(C)C)c(O)c(C(C)(C)C)c1)P(=O)(OCC)OCC | 98.5% |
| COc1ccc(-c2ccccc2)cc1NS(=O)(=O)c1cc(Cl)cc(Cl)c1O | 113% |
| C[C@H](NC(=O)c1sccc1OCc1ccc(Cl)cc1)c1ccccc1 | 75.7% |
| O=C(O)c1cc(Cl)cc(Cl)c1O [3,5-Dichlorosalicylic Acid] | 90% |
| O=C(O)C(=O)CBr [3-bromopyruvic acid] | 110% |
| NS(=O)(=O)c1ccc([N+](=O)[O-])cc1 [4-Nitrobenzenesulfonamide] | 93.8% |
| Cc1ccccc1C(C(=O)NC1CCCCC1)N(C(=O)Cn1ccnc1C)c1cccc(F)c1 (stereo unspecified) [AGI-5198] | 99.1% |
| CC(C)(C#N)c1cc(Cn2cncn2)cc(C(C)(C)C#N)c1 [Anastrozole] | 103% |
| O=C(O)C1=CC(=C(c2ccc(O)c(C(=O)O)c2)c2ccc(O)c(C(=O)O)c2)C=CC1=O [Aurintricarboxylic acid] | 114% |

System: HL-60
Assay: area under dose-response curve (viability, 1 nM-10 uM) (fraction (0-1)); higher = more sensitive
Conditions: 72 h; co-treatment: AZD3965 100 nM
Outline: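 HL-60 cells grown in RPMI 1640 with 10% FBS were rescreened against the full library in 384-well plates, in duplicate, at five tenfold concentrations from 1 to 10,000 nM, alongside DMSO or 100 nM of one of three metabolic inhibitors for 72 h at 37 °C, 5% CO2. Reference wells contained DMSO or 10 μM proteasome inhibitor. Viability was read with CellTiter-Glo and normalised to these reference wells, and where reported, area under the curve was taken from four-parameter log-logistic fits in drc and PharmacoGx.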

| SMILES | area under dose-response curve |
| --- | --- |
| CN(C)C(=O)[C@H](O)[C@H](Cc1ccccc1)NC(=O)c1cc2cc(Cl)ccc2[nH]1 | < 0.0301 |
| COc1ccc(CNC(=O)Nc2ncc([N+](=O)[O-])s2)cc1 | < 0.0301 |
| CCOP(=O)(OCC)C(=Cc1cc(C(C)(C)C)c(O)c(C(C)(C)C)c1)P(=O)(OCC)OCC | < 0.0301 |
| COc1ccc(-c2ccccc2)cc1NS(=O)(=O)c1cc(Cl)cc(Cl)c1O | < 0.0301 |
| C[C@H](NC(=O)c1sccc1OCc1ccc(Cl)cc1)c1ccccc1 | < 0.0301 |
| O=C(O)c1cc(Cl)cc(Cl)c1O [3,5-Dichlorosalicylic Acid] | < 0.0301 |
| O=C(O)C(=O)CBr [3-bromopyruvic acid] | < 0.0301 |
| NS(=O)(=O)c1ccc([N+](=O)[O-])cc1 [4-Nitrobenzenesulfonamide] | < 0.0301 |
| Cc1ccccc1C(C(=O)NC1CCCCC1)N(C(=O)Cn1ccnc1C)c1cccc(F)c1 (stereo unspecified) [AGI-5198] | < 0.0301 |
| CC(C)(C#N)c1cc(Cn2cncn2)cc(C(C)(C)C#N)c1 [Anastrozole] | < 0.0301 |
| O=C(O)C1=CC(=C(c2ccc(O)c(C(=O)O)c2)c2ccc(O)c(C(=O)O)c2)C=CC1=O [Aurintricarboxylic acid] | < 0.0301 |

Same assay, conditions: 72 h; co-treatment: DMSO vehicle

| SMILES | area under dose-response curve |
| --- | --- |
| CN(C)C(=O)[C@H](O)[C@H](Cc1ccccc1)NC(=O)c1cc2cc(Cl)ccc2[nH]1 | < 0.0301 |
| COc1ccc(CNC(=O)Nc2ncc([N+](=O)[O-])s2)cc1 | < 0.0301 |
| CCOP(=O)(OCC)C(=Cc1cc(C(C)(C)C)c(O)c(C(C)(C)C)c1)P(=O)(OCC)OCC | < 0.0301 |
| COc1ccc(-c2ccccc2)cc1NS(=O)(=O)c1cc(Cl)cc(Cl)c1O | < 0.0301 |
| C[C@H](NC(=O)c1sccc1OCc1ccc(Cl)cc1)c1ccccc1 | < 0.0301 |
| O=C(O)c1cc(Cl)cc(Cl)c1O [3,5-Dichlorosalicylic Acid] | < 0.0301 |
| O=C(O)C(=O)CBr [3-bromopyruvic acid] | < 0.0301 |
| NS(=O)(=O)c1ccc([N+](=O)[O-])cc1 [4-Nitrobenzenesulfonamide] | < 0.0301 |
| Cc1ccccc1C(C(=O)NC1CCCCC1)N(C(=O)Cn1ccnc1C)c1cccc(F)c1 (stereo unspecified) [AGI-5198] | < 0.0301 |
| CC(C)(C#N)c1cc(Cn2cncn2)cc(C(C)(C)C#N)c1 [Anastrozole] | < 0.0301 |
| O=C(O)C1=CC(=C(c2ccc(O)c(C(=O)O)c2)c2ccc(O)c(C(=O)O)c2)C=CC1=O [Aurintricarboxylic acid] | < 0.0301 |

Same assay, conditions: 72 h; co-treatment: GSK2194069 100 nM

| SMILES | area under dose-response curve |
| --- | --- |
| CN(C)C(=O)[C@H](O)[C@H](Cc1ccccc1)NC(=O)c1cc2cc(Cl)ccc2[nH]1 | < 0.0301 |
| COc1ccc(CNC(=O)Nc2ncc([N+](=O)[O-])s2)cc1 | < 0.0301 |
| CCOP(=O)(OCC)C(=Cc1cc(C(C)(C)C)c(O)c(C(C)(C)C)c1)P(=O)(OCC)OCC | < 0.0301 |
